These results are taken from patent US20120004244A1, “Bis Aromatic Compounds for Use as LTC4 Synthase Inhibitors” (BIOLIPOX AB, priority 2009, published 2012).

The target of one assay is T1, Recombinant human LTC4 synthase (Homo sapiens, UniProt Q16873).
T1 construct: made in house; host or cells: Pichia pastoris ('Piccia pastoralis' [sic])
T1 sequence (Q16873 1-150): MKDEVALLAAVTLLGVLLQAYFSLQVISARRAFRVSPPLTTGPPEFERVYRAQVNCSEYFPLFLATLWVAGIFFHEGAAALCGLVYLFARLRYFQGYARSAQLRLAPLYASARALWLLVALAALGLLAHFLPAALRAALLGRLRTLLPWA
Put plainly: LTC4 synthase in vitro assay (LTA4 to LTC4, HTRF detection). The format is biochemical.
Conditions: not given
In short, it runs like this:
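Purified recombinant human LTC4 synthase expressed in Pichia (0.5 μg/mL total protein) was preincubated with inhibitor at 10 μM final for 10 min at room temperature in PBS pH 7.4 with 5 mM GSH. LTA4 was then added at 2.5 μM final, and after 5 min at room temperature LTC4 was detected by HTRF.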
For the molecule `CN(c1ccc(Cl)cc1)c1ccc(C(=O)c2ccc(NC3CCSCC3)c(C(=O)O)c2)nc1` [2:19, 5-{5-[(4-Chlorophenyl)(methyl)amino]picolinoyl}-2-(4-tetrahydrothiopyranylamino)benzoic acid], the IC50 was 149 nM. Still for that read-out and setting: the figure for `CN(c1ccc(Cl)cc1)c1ccc(C(=O)c2ccc(NC3CCS(=O)(=O)CC3)c(C(=O)O)c2)nc1` [2:20, 5-{5-[(4-Chlorophenyl)(methyl)amino]picolinoyl}-2-(1,1-dioxotetrahydrothiopyran-4-ylamino)benzoic acid] is 658 nM; for `CN(c1ccc(Cl)cc1)c1ccc(C(=O)c2ccc(Nc3ccccc3)c(C(=O)O)c2)nc1` [2:21, 5-{5-[(4-Chlorophenyl)(methyl)amino]picolinoyl}-2-phenylaminobenzoic acid] it is 139 nM; for `CN(c1ccc(Cl)cc1)c1ccc(C(=O)c2ccc(N3CCC(C(F)(F)F)CC3)c(C(=O)O)c2)nc1` [2:22, 5-{5-[(4-Chlorophenyl)(methyl)amino]picolinoyl}-2-(4-trifluoromethyl-1-piperidinyl)benzoic acid] it is 2000 nM. Same read-out and setting: the figure for `CN(c1ccc(Cl)cc1)c1ccc(C(=O)c2ccc(NC(=O)c3ccc(C(F)(F)F)cc3)c(C(=O)O)c2)nc1` [3:1, 5-{5-[(4-Chlorophenyl)(methyl)amino]picolinoyl}-2-(4-trifluoromethylbenzamido)-benzoic acid] is 33 nM; for `CN(c1ccc(Cl)cc1)c1ccc(C(=O)c2ccc(NC(=O)c3cc(Cl)ccc3O)c(C(=O)O)c2)nc1` [3:2, 2-(5-Chloro-2-hydroxybenzamido)-5-{5-[(4-chlorophenyl)(methyl)amino]-picolinoyl}benzoic acid] it is 25 nM; for `CN(c1ccc(Cl)cc1)c1ccc(C(=O)c2ccc(NC(=O)c3ccccc3)c(C(=O)O)c2)nc1` [3:3, 2-Benzamido-5-{5-[(4-chlorophenyl)(methyl)amino]picolinoyl}benzoic acid] it is 34 nM. Turning to `COc1ccc(C(=O)Nc2ccc(C(=O)c3ccc(N(C)c4ccc(Cl)cc4)cn3)cc2C(=O)O)cc1` [3:4, 5-{5-[(4-Chlorophenyl)(methyl)amino]picolinoyl}-2-(4-methoxybenzamido)-benzoic acid], the IC50 worked out at 23 nM. For the molecule `COc1ccccc1C(=O)Nc1ccc(C(=O)c2ccc(N(C)c3ccc(Cl)cc3)cn2)cc1C(=O)O` [3:5, 5-{5-[(4-Chlorophenyl)(methyl)amino]picolinoyl}-2-(2-methoxybenzamido)-benzoic acid], the 50% inhibitory concentration (IC50) is 32 nM.

`CN(c1ccc(Cl)cc1)c1ccc(C(=O)c2ccc(NC(=O)c3ccc4c(c3)OCO4)c(C(=O)O)c2)nc1` [3:6, 5-{5-[(4-Chlorophenyl)(methyl)amino]picolinoyl}-2-(3,4-methylenedioxy-benzamido)benzoic acid]: the IC50 amounted to 11 nM. On the same count and under the same terms, then `COc1ccc(C(=O)Nc2ccc(C(=O)c3ccc(N(CC4CC4)c4ccc(Cl)cc4)cn3)cc2C(=O)O)cc1` [3:7, 5-{5-[(4-Chlorophenyl)(cyclopropylmethyl)amino]picolinoyl}-2-(4-methoxy-benzamido)benzoic acid], with 31 nM; and `COc1ccccc1C(=O)Nc1ccc(C(=O)c2ccc(N(CC3CC3)c3ccc(Cl)cc3)cn2)cc1C(=O)O` [3:8, 5-{5-[(4-Chlorophenyl)(cyclopropylmethyl)amino]picolinoyl}-2-(2-methoxy-benzamido)benzoic acid], with 40 nM.

Regarding `O=C(Nc1ccc(C(=O)c2ccc(N(CC3CC3)c3ccc(Cl)cc3)cn2)cc1C(=O)O)c1ccc2c(c1)OCO2` [3:9, 5-{5-[(4-Chlorophenyl)(cyclopropylmethyl)amino]picolinoyl}-2-(3,4-methylene-dioxybenzamido)benzoic acid], the IC50 came out at 21 nM. On the same count and under the same terms, then `COc1cccc(C(=O)Nc2ccc(C(=O)c3ccc(N(C)c4ccc(Cl)cc4)cn3)cc2C(=O)O)c1` [3:10, 5-{5-[(4-Chlorophenyl)(methyl)amino]picolinoyl}-2-(3-methoxybenzamido)-benzoic acid], with 24 nM; and `CN(c1ccc(Cl)cc1)c1ccc(C(=O)c2ccc(NC(=O)c3ccc(OC(F)(F)F)cc3)c(C(=O)O)c2)nc1` [3:11, 5-{5-[(4-Chlorophenyl)(methyl)amino]picolinoyl}-2-(4-trifluoromethoxy-benzamido)benzoic acid], with 44 nM; and `CN(c1ccc(Cl)cc1)c1ccc(C(=O)c2ccc(NC(=O)c3ccccc3OC(F)(F)F)c(C(=O)O)c2)nc1` [3:12, 5-{5-[(4-Chlorophenyl)(methyl)amino]picolinoyl}-2-(2-trifluoromethoxy-benzamido)benzoic acid], with 104 nM.

As to `COc1ccc(C(=O)Nc2ccc(C(=O)c3ccc(N(C)c4ccc(Cl)cc4)cn3)cc2C(=O)O)c(OC)c1` [3:13, 5-{5-[(4-Chlorophenyl)(methyl)amino]picolinoyl}-2-(2,4-dimethoxy-benzamido)benzoic acid], the IC50 came out at 23 nM. Take `CN(c1ccc(Cl)cc1)c1ccc(C(=O)c2ccc(NC(=O)c3ccc(S(C)(=O)=O)cc3)c(C(=O)O)c2)nc1` [3:14, 5-{5-[(4-Chlorophenyl)(methyl)amino]picolinoyl}-2-(4-methylsulfonyl-benzamido)benzoic acid]: the IC50 was 67 nM. Same read-out and setting: then `CN(c1ccc(Cl)cc1)c1ccc(C(=O)c2ccc(NC(=O)c3ccc(S(=O)(=O)N(C)C)cc3)c(C(=O)O)c2)nc1` [3:15, 5-{5-[(4-Chlorophenyl)(methyl)amino]picolinoyl}-2-(4-dimethylsulfamoyl-benzamido)benzoic acid], with 41 nM; and `COc1cc(C(=O)Nc2ccc(C(=O)c3ccc(N(C)c4ccc(Cl)cc4)cn3)cc2C(=O)O)cc(OC)c1OC` [3:16, 5-{5-[(4-Chlorophenyl)(methyl)amino]picolinoyl}-2-(3,4,5-trimethoxybenz-amido)benzoic acid], with 157 nM. The same measure, in the same setting: the figure for `CN(c1ccc(Cl)cc1)c1ccc(C(=O)c2ccc(NC(=O)c3ccc4c(c3)OC(F)(F)O4)c(C(=O)O)c2)nc1` [3:17, 5-{5-[(4-Chlorophenyl)(methyl)amino]picolinoyl}-2-[3,4-(difluoromethylene-dioxy)benzamido]benzoic acid] is 38 nM; for `CN(c1ccc(Cl)cc1)c1ccc(C(=O)c2ccc(NC(=O)c3cccc4c3OC(F)(F)O4)c(C(=O)O)c2)nc1` [3:18, 5-{5-[(4-Chlorophenyl)(methyl)amino]picolinoyl}-2-[2,3-(difluoromethylene-dioxy)benzamido]benzoic acid] it is 112 nM; for `CN(c1ccc(Cl)cc1)c1ccc(C(=O)c2ccc(NC(=O)c3ccc4c(c3)OCCO4)c(C(=O)O)c2)nc1` [3:19, 5-{5-[(4-Chlorophenyl)(methyl)amino]picolinoyl}-2-(3,4-ethylenedioxy-benzamido)benzoic acid] it is 17 nM. Still for that read-out and setting: then `CN(c1ccc(Cl)cc1)c1ccc(C(=O)c2ccc(NC(=O)c3ccccc3C#N)c(C(=O)O)c2)nc1` [3:20, 5-{5-[(4-Chlorophenyl)(methyl)amino]picolinoyl}-2-(2-cyanobenzamido)benzoic acid], with 3000 nM; and `COc1ccc(OC)c(C(=O)Nc2ccc(C(=O)c3ccc(N(C)c4ccc(Cl)cc4)cn3)cc2C(=O)O)c1` [3:21, 5-{5-[(4-Chlorophenyl)(methyl)amino]picolinoyl}-2-(2,5-dimethoxybenzamido)-benzoic acid], with 25 nM.

The assay is the same for the next values; noted with them: 5 min; total concentration of title compound in the assay 10 μM.
As for `CN(c1ccc(Cl)cc1)c1ccc(C(=O)c2ccc(NC(=O)c3ccc(C(F)(F)F)cc3)c(C(=O)O)c2)nc1` [3:1, 5-{5-[(4-Chlorophenyl)(methyl)amino]picolinoyl}-2-(4-trifluoromethylbenzamido)-benzoic acid], the inhibition at 10 µM turned out to be 100%. On the same count and under the same terms, the figure for `CN(c1ccc(Cl)cc1)c1ccc(C(=O)c2ccc(NC(=O)c3cc(Cl)ccc3O)c(C(=O)O)c2)nc1` [3:2, 2-(5-Chloro-2-hydroxybenzamido)-5-{5-[(4-chlorophenyl)(methyl)amino]-picolinoyl}benzoic acid] is 100%.
